Test results taken from PubChem BioAssay AID602251 (NMMLSC, 2012).
Calls of active or inactive are those of the source.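 The calls were made as follows: active = fitted concentration giving half of the maximal binding block below 66 µM; inactive = the rest.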

The compounds below were run against anti-desmoglein 3 scFv antibody binding to human desmoglein 3 (DSG3) (assay: blockers of pemphigus antibody–desmoglein 3 interaction – biochemical, DSG3-coupled beads, scFv-GFP, flow cytometry, Cherry Pick 1, dose response (AID 602251)). Details: not given.

Compound	EC50
O=C(O)c1cccc(-n2cccc2/C=C2/NC(=O)N(c3ccc(Cl)cc3)C2=O)c1	11.7 µM
O=c1c2ccccc2sn1-c1nccs1	12.7 µM
Nn1c(SCC(=O)Nc2cc(C(F)(F)F)ccc2Cl)nncc1=O	29.6 µM
COc1ccccc1NC(=O)c1cc(C(=O)Nc2ccccc2OC)cc([N+](=O)[O-])c1	25.3 µM
Nc1ccc2nc(-c3cccc(-c4nc5ccc(N)cc5[nH]4)c3)[nH]c2c1	65.2 µM
Cn1c(SCC(=O)NC2CCCCC2)nnc1-c1cc2cc(Cl)ccc2o1	21.1 µM
COc1cccc2c1NC(C(=O)O)C1CC=CC21 (configuration not stated)	32.1 µM
CC(=O)Nc1cc(=O)c2cccnc2[nH]1	25.4 µM
COc1ccc(N=C2S/C(=C\c3ccc(OCC(=O)O)cc3)C(=O)N2CCc2c[nH]c3ccccc23)cc1	15.8 µM
CCOC(=O)Cc1csc(-n2sc3ccccc3c2=O)n1	15 µM
NS(=O)(=O)c1ccc(NC(=O)c2cc(-c3cccs3)nc3ccccc23)cc1	17.3 µM
CCCCOC(=O)Nc1sc2nc(C)cc(C)c2c1-n1cccc1	41.9 µM
COc1ccc(NC(=O)CSc2nc3c([nH]c4ccccc43)c(=O)n2C)c(OC)c1	22.4 µM
O=C(Nc1ccc(F)cc1)Nc1ccc([N+](=O)[O-])cn1	21.5 µM
O=C(O)C1Nc2c(O)cc(Cl)c([N+](=O)[O-])c2C2C=CCC12 (configuration not stated)	27.7 µM
Cc1ccc(C(C)C)c(OCC(=O)Nc2ccc(N3CCN(S(C)(=O)=O)CC3)cc2)c1	20.9 µM
CC1CCN(S(=O)(=O)c2ccc3c(c2)c(=O)c(C(=O)NCc2cccs2)cn3C)CC1	55.8 µM
Clc1ccc2nc(CSc3nnc(-c4c[nH]c5ccccc45)o3)cn2c1	24.8 µM
CCOC(=O)Cn1c(=NC(=O)c2cccs2)sc2cc(C(=O)OC)ccc21	26 µM
O=C1c2ccccc2C(=O)N1Cc1nn2c(-c3ccc(Cl)cc3)nnc2s1	36 µM
CCC(CC)C(=O)Nc1cccc(S(=O)(=O)c2cccc(NC(=O)C(CC)CC)c2)c1	55 µM
NC(=O)c1ccsc1NC(=O)COC(=O)c1cc(=O)[nH]c2ccccc12	30.2 µM
C=CCn1c(O)c(C2=c3ccccc3=NC2=O)s/c1=N/c1nccs1	39.6 µM

Same assay, conditions: at 66.1 µM (top of the series)

Compound	binding response, lower = inhibition
O=C(CSc1nnc(Cc2ccccc2)o1)N1CCc2ccccc21	inactive
COc1ccc(Cl)c(NC(=O)NCCN2CCN(c3ccccc3)CC2)c1	inactive
O=C(Nc1ccc2oc(=O)ccc2c1)c1ccc(-c2ccccc2[N+](=O)[O-])o1	inactive
COC(=O)c1cc(/C=C/c2ccccc2)on1	inactive
CCOc1ccc(N2CSC(=S)N(c3ccc(OCC)cc3)C2)cc1	inactive
COc1ccccc1CNC(=O)COC(=O)c1ccc(S(=O)(=O)N2CCCC2)cc1	inactive
COc1cc(OC)cc(C(=O)OCc2cc3ccccc3[nH]c2=O)c1	inactive
CCOc1ccccc1NCc1cc(=O)oc2cc(C)c(O)cc12	inactive
Cc1cc(NC(=O)c2cc(-c3ccccn3)nc3ccc(Br)cc23)no1	inactive
COc1ccc(NC(=O)c2ccc3c(c2)C(=O)N(Cc2cccnc2)C3=O)c(OC)c1	inactive
O=C(Nc1ccc(Nc2ccncc2)cc1)c1ccc(Nc2ccnc3ccc([N+](=O)[O-])cc23)cc1	inactive
O=C(c1cc2cc3ccc(Cl)cc3nc2o1)N1CCN(Cc2ccc3c(c2)OCO3)CC1	inactive
O=C(Nc1ccc(S(=O)(=O)NCc2ccccc2)cc1)C1CCCCC1	inactive
Cc1ccc(O)c(NC(=O)c2ccc3c(c2)C(=O)N(Cc2cccnc2)C3=O)c1	inactive
COc1ccc(-c2cc(=O)oc3cc(OCC(=O)Nc4ccccn4)ccc23)cc1	inactive
COc1ccc(C(=O)Nc2ccc(Oc3ncnc4sc(-c5ccccc5)cc34)cc2)cc1OC	inactive
N=c1oc2ccc3ccccc3c2cc1C(N)=S	inactive
CCCNC(=O)c1c(N)n(-c2ccc(S(N)(=O)=O)cc2)c2nc3ccccc3nc12	inactive
CCC(=O)N1CCc2cc(S(=O)(=O)N(C)c3ccc(Br)cc3)ccc21	inactive
CCOc1ccc(Nc2ncnc3c2cnn3-c2ccccc2)cc1	inactive
N#Cc1cn(-c2ccccc2)nc1-c1ccc2c(c1)OCCO2	inactive
COCCCNC(=O)c1c(N)n(-c2cccc(S(N)(=O)=O)c2)c2nc3ccccc3nc12	inactive
Cc1nc2ccccc2nc1OCC(=O)Nc1ccc2ccccc2c1	inactive

Compound	binding response, lower = inhibition
O=C(Nc1nc2cc3c(cc2s1)OCCO3)c1ccc(N2C(=O)CCC2=O)cc1	inactive
O=C1OC(COc2ccc(Br)cc2)CN1c1ccccc1 (configuration not stated)	inactive
CCOc1ccc(S(=O)(=O)N2CCN(C(=O)c3ccccc3Cc3ccccc3)CC2)cc1	inactive
Cc1cc(C)cc(N(CC(=O)NC2CCC(C)CC2)S(=O)(=O)c2c(C)noc2C)c1 (configuration not stated)	inactive
Cc1ccc(-n2ncc3c(=O)[nH]c(SCC(=O)N4CCN(c5ccccc5)CC4)nc32)cc1	inactive
COc1cc(OC)cc(N(C(=O)C2COc3ccccc3O2)C(C(=O)NC2CCCCC2)c2ccc(O)cc2)c1 (configuration not stated)	inactive
CCOC(=O)N1CCC(NC(=O)c2cc3c(-c4ccccc4F)nn(C)c3s2)CC1	inactive
CN(C)Cc1cc(O)c(CN(C)C)cc1O	inactive
Cn1c2ccccc2c(=O)c2c(=O)n(Cc3ccco3)c(COc3ccccc3)nc21	inactive
OCc1cn(-c2ccccc2)nc1-c1ccc(-c2nn(-c3ccccc3)cc2CO)cc1	inactive
COc1cc(C(C(=O)NC2CCCCC2)N(CCN2CCOCC2)C(=O)C2COc3ccccc3O2)cc(OC)c1OC (configuration not stated)	inactive
O=C(COC(=O)c1ccc(S(=O)(=O)N2CCCC2)cc1)NCc1ccc(Cl)cc1	inactive
CCCCN1C=C(C(=O)OC)C(c2ccccc2C(F)(F)F)C(C(=O)OC)=C1	inactive
CCCCN(C)CCNC(=O)c1cc(-c2cccnc2)nc2ccc(S(=O)(=O)N3CCC(C)CC3)cc12	inactive
CCOC(=O)c1cc(-c2ccc(/C=C3/C(=O)N(c4ccc(C(=O)O)cc4)N=C3C)o2)ccc1Cl	inactive
O=C(Nc1ccc(Nc2ccccc2)cc1)c1ccc(Br)cc1	inactive
Cc1ccc2nc(NC(=O)c3ccc4ncsc4c3)sc2c1	inactive
CCc1nnc(NC(=O)CSc2ncnc3c2oc2ccccc23)s1	inactive
CN(C)c1nc(N)ncc1-c1ccc(Oc2ccccc2)cc1	inactive
COc1ccc(NC(=O)c2ccc3c(c2)C(=O)N(Cc2ccncc2)C3=O)cc1S(N)(=O)=O	inactive
CC(C)(C)NS(=O)(=O)c1ccc(NC(=O)c2cc(-c3ccccc3)nc3ccccc23)cc1	inactive
Cc1ccc(CSc2nnc(Nc3ccc(C)cc3)s2)cc1	inactive
COc1cc(/C=C2/C(=N)N3OC(C)=CC3=NC2=O)ccc1OC(=O)c1ccco1	inactive

Compound	binding response, lower = inhibition
C#CCn1c(=NC(=O)c2sc3ccccc3c2Cl)sc2cc(S(N)(=O)=O)ccc21	inactive
Cc1c([N+](=O)[O-])cc(C(=O)Nc2ccc(NC(=O)c3ccco3)cc2)cc1[N+](=O)[O-]	inactive
CN(C(=O)COC(=O)c1ccc(-c2ccc(O)cc2)cc1)C1CCS(=O)(=O)C1 (configuration not stated)	inactive
COC(=O)c1sc(NC(=O)c2cc(-c3ccccc3)nc3ccccc23)c(C#N)c1C	inactive
O=C(Nc1cccc([N+](=O)[O-])c1)c1ccc(CSc2ccccc2)cc1	inactive
COc1ccccc1-n1cnc2c(c1=O)c1nc3ccccc3nc1n2-c1ccc(C)c(C)c1	inactive
CS(=O)(=O)c1ccc2nc(NC(=O)Nc3ccccc3F)sc2c1	inactive
COc1ccccc1NS(=O)(=O)c1cccc(NC(=O)c2cc3ccccc3oc2=O)c1	inactive
Cc1nnc2ccc(-c3ccc(NS(=O)(=O)c4ccccc4)cc3)nn12	inactive
CN1C(=O)/C(=C/c2cccn2-c2ccc3ccccc3c2)C(=O)NC1=S	inactive
O=C(Nc1ccc2c(c1)OCO2)C1CCN(c2ccc(S(=O)(=O)N3CCOCC3)cc2)CC1	inactive
COc1ccc(OC)c(NC(=O)c2nc(-c3ccccc3)oc2C)c1	inactive
O=C(N/N=C1/C(=O)c2cccc3cccc1c23)c1ccc(Cl)cc1	inactive
COc1ccccc1C(=O)Nc1ccc(Oc2ncnc3sc(-c4ccccc4)cc23)cc1	inactive
O=C1c2ccc(-c3ccc(F)cc3OCc3ccccc3)cc2S(=O)(=O)c2cccc(C(=O)N3CCN(c4ncc(Br)cn4)CC3)c21	inactive
O=C(Nc1cc(Cl)ccc1Cl)c1ccc(OC(=O)c2ccco2)cc1	inactive
NS(=O)(=O)c1ccc(-c2ccc(/C=C3\SC(=S)N(C4CCS(=O)(=O)C4)C3=O)o2)cc1 (configuration not stated)	inactive
Cc1sc(NC(=O)CSc2nnc3scc(-c4ccccc4)n23)c(C#N)c1C	inactive
CC(=O)c1c(C)n(-c2ccc(C)cc2)c2ccc(O)cc12	inactive
O=C(COc1cccnc1[N+](=O)[O-])Nc1cc(S(=O)(=O)N2CCCCC2)ccc1Cl	inactive
CC(=O)Nc1cccc(NC(=O)CSc2ccc(C(F)(F)F)cc2[N+](=O)[O-])c1	inactive
O=C(NCCCN1CCOCC1)c1cc(-c2cccc(Br)c2)nc2ccccc12	inactive
O=C(Nc1cccc2ccccc12)N1CCN(c2ccccc2)CC1	inactive
